We go through 19 compounds from US8455534B2, “Estrogen receptor modulators and uses thereof” (Aragon Pharmaceuticals, Inc., priority 2010, dated 2013).

One assay concerns the target T1, ER-α (Homo sapiens, UniProt P03372).
T1 sequence (P03372 1-595): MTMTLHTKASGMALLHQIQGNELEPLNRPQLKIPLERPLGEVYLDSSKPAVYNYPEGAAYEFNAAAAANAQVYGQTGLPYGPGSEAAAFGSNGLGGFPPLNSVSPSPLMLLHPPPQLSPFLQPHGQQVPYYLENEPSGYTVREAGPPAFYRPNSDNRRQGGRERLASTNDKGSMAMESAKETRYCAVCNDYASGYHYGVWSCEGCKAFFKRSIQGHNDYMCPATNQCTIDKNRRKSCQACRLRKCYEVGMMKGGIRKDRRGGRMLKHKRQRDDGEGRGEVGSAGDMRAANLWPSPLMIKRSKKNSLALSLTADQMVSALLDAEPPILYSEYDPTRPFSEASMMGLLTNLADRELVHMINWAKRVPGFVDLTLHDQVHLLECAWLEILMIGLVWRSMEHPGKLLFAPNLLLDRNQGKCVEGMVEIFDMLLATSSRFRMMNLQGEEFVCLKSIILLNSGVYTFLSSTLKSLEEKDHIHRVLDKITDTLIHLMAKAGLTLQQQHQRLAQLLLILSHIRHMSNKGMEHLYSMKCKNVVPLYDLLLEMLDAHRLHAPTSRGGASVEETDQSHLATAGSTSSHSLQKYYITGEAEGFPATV
The assay can be described thus: Breast Cancer Cell ER-α In Cell Western Assay (SP1). In kind it is cell-based. Particulars: MCF-7 cells, SP1 antibody, 4 or 24 hr post compound addition; for Emax: MCF7, read-out: ER-α In Cell Western Assay (SP1) Max Response; for DC50: read-out: ER-α In Cell Western Assay (SP1) IC50. In short, it runs like this: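 ER-α protein levels measured by in-cell western with SP1 antibody, ratioed to DRAQ5 DNA signal and given as percent of untreated controls. Compounds added at 0.3–0.000003 μM final (eleven semilog points) to adherent MCF-7 cells in stripped serum; exposure 4 or 24 h before fixation.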

The next assay concerns MCF-7 cells. The assay can be described thus: Breast Cancer Cell Viability Assay (MCF-7, CellTiter-Glo). The assay is classed as cell-based. Particulars: 5 days' compound exposure; for pIC50: Homo sapiens, MCF7, 120 h. In short, it runs like this:
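MCF-7 cells, 320 per well in RPMI with 10% FBS and 20 mM HEPES, adhered overnight, then exposed 5 days to an eleven-point semilog dilution (final 0.3-0.000003 μM). CellTiter-Glo luminescence read; % viability = (sample − cell-free background)/(untreated − background) × 100.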

pIC50: −log10 of the molar value.

The term pIC50 denotes −log10 of the IC50, conventionally taken in molar units. High values mean a small IC50, low ones a large IC50. As to `CC/C(=C(/c1ccc(/C=C(\C)C(=O)O)cc1)c1ccc2[nH]ncc2c1)c1ccccc1` [Compound 99, (E)-3-(4-((E)-1-(1H-Indazol-5-yl)-2-phenylbut-1-en-1-yl)phenyl)-2-methylacrylic acid], on ER-α, the Emax was not below 40% and the DC50 is not above 100 nM. In the assay on MCF-7 cells, the “MCF7 Viability Assay Max Response” value is “++ (++ = a single % value ≧ 40%)” and the pIC50 is not below 7.00.

In the case of `CC/C(=C(\c1ccc2[nH]ncc2c1)c1ccc(/C=C/C(=O)O)cc1C)c1ccccc1` [Compound 100, (E)-3-(4-((Z)-1-(1H-Indazol-5-yl)-2-phenylbut-1-en-1-yl)-3-methylphenyl)acrylic acid], the Emax at ER-α is not below 40%. In the assay with MCF-7 cells, the “MCF7 Viability Assay Max Response” value is given as “++ (++ = a single % value ≧ 40%)” and the negative-log IC50 (pIC50) was not below 7.00.

For the compound `CC/C(=C(/c1ccc(/C=C/C(=O)O)c(C)c1)c1ccc2[nH]ncc2c1)c1ccccc1` [Compound 101, (E)-3-(4-((E)-1-(1H-Indazol-5-yl)-2-phenylbut-1-en-1-yl)-2-methylphenyl)acrylic acid], the Emax at ER-α is not below 40%. Moreover, in the assay on MCF-7 cells, the “MCF7 Viability Assay Max Response” value is recorded as “++ (++ = a single % value ≧ 40%)” and the pIC50 is not below 7.00.

Regarding `CC/C(=C(/c1ccc(/C=C/C(=O)O)c(Cl)c1)c1ccc2[nH]ncc2c1)c1ccccc1` [Compound 102, (E)-3-(4-((Z)-1-(1H-Indazol-5-yl)-2-phenylbut-1-en-1-yl)-2-chlorophenyl)acrylic acid], on ER-α, the Emax is not below 40% and the DC50 is not above 100 nM. Besides, in the assay on MCF-7 cells, the “MCF7 Viability Assay Max Response” value is given as “++ (++ = a single % value ≧ 40%)” and the pIC50 is not below 7.00.

Consider `CC/C(=C(/c1ccc(/C=C(\F)C(=O)O)cc1)c1ccc2[nH]ncc2c1)c1ccccc1` [Compound 103, (Z)-3-(4-((E)-1-(1H-Indazol-5-yl)-2-phenylbut-1-en-1-yl)phenyl)-2-fluoroacrylic acid], for which, on ER-α, the Emax is not below 40% and the DC50 is not above 100 nM. Besides, in the assay with MCF-7 cells, the “MCF7 Viability Assay Max Response” value is recorded as “++ (++ = a single % value ≧ 40%)” and the pIC50 was less than 7.00.

For the compound `CC/C(=C(/c1ccc(/C=C(\Cl)C(=O)O)cc1)c1ccc2[nH]ncc2c1)c1ccccc1` [Compound 104, (Z)-3-(4-((E)-1-(1H-Indazol-5-yl)-2-phenylbut-1-en-1-yl)phenyl)-2-chloroacrylic acid], on ER-α, the Emax was not below 40% and the DC50 was not above 100 nM. Further, in the assay with MCF-7 cells, the “MCF7 Viability Assay Max Response” value is “++ (++ = a single % value ≧ 40%)” and the pIC50 was less than 7.00.

Take `CC/C(=C(\c1ccc2[nH]ncc2c1)c1ccc(/C=C/C(=O)O)cc1F)c1ccccc1` [Compound 105, (E)-3-(4-((Z)-1-(1H-Indazol-5-yl)-2-phenylbut-1-en-1-yl)-3-fluorophenyl)acrylic acid]: at ER-α, the Emax is not below 40% and the DC50 is not above 100 nM. In the assay with MCF-7 cells, the “MCF7 Viability Assay Max Response” value is on record as “++ (++ = a single % value ≧ 40%)” and the pIC50 is not below 7.00.

Turning to `CC/C(=C(/c1ccc(/C=C/C(=O)O)c(F)c1)c1ccc2[nH]ncc2c1)c1ccccc1` [Compound 106, (E)-3-(4-((Z)-1-(1H-Indazol-5-yl)-2-phenylbut-1-en-1-yl)-2-fluorophenyl)acrylic acid], at ER-α, the Emax was not below 40% and the DC50 was not above 100 nM. Also, in the assay with MCF-7 cells, the “MCF7 Viability Assay Max Response” value is “++ (++ = a single % value ≧ 40%)” and the pIC50 is not below 7.00.

With `CC/C(=C(/c1ccc(/C=C/C(=O)O)c(C(F)(F)F)c1)c1ccc2[nH]ncc2c1)c1ccccc1` [Compound 107, (E)-3-(4-((Z)-1-(1H-Indazol-5-yl)-2-phenylbut-1-en-1-yl)-2-(trifluoromethyl)phenyl)acrylic acid], on ER-α, the Emax is not below 40% and the DC50 was not above 100 nM. Also, in the assay with MCF-7 cells, the “MCF7 Viability Assay Max Response” value was “++ (++ = a single % value ≧ 40%)” and the pIC50 was less than 7.00.

Turning to `CC/C(=C(\c1ccc2[nH]ncc2c1)c1ccc(/C=C/C(=O)O)cc1OC)c1ccccc1` [Compound 108, (E)-3-(4-((Z)-1-(1H-Indazol-5-yl)-2-phenylbut-1-en-1-yl)-3-methoxyphenyl)acrylic acid], the Emax on ER-α was not below 40%. Moreover, in the assay on MCF-7 cells, the “MCF7 Viability Assay Max Response” value is recorded as “++ (++ = a single % value ≧ 40%)” and the negative-log IC50 (pIC50) was not below 7.00.

In the case of `CC/C(=C(/c1ccc(/C=C/C(=O)O)c(OC)c1)c1ccc2[nH]ncc2c1)c1ccccc1` [Compound 109, (E)-3-(4-((Z)-1-(1H-Indazol-5-yl)-2-phenylbut-1-en-1-yl)-2-methoxyphenyl)acrylic acid], the Emax on ER-α is not below 40%. In the assay with MCF-7 cells, the “MCF7 Viability Assay Max Response” value is reported as “++ (++ = a single % value ≧ 40%)” and the pIC50 is not below 7.00.

Take `CCOC(=O)/C=C/c1ccc(/C(=C(/CC)c2ccc(F)cc2Cl)c2ccc3[nH]ncc3c2)cc1.Cl` [Compound 110, (E)-Ethyl 3-(4-((E)-2-(2-chloro-4-fluorophenyl)-1-(1H-indazol-5-yl)but-1-en-1-yl)phenyl)acrylate hydrochloride]: on ER-α, the Emax was not below 40% and the DC50 is not above 100 nM. For the same compound, in the assay on MCF-7 cells, the “MCF7 Viability Assay Max Response” value is on record as “+ (+ = a single % value < 40%)” and the pIC50 is not below 7.00.

Regarding `CCOC(=O)/C=C/c1ccc(/C(=C(/CC)c2ccc(Cl)cc2Cl)c2ccc3[nH]ncc3c2)cc1` [Compound 112, (E)-Ethyl 3-(4-((E)-2-(2,4-dichlorophenyl)-1-(1H-indazol-5-yl)but-1-en-1-yl)phenyl)acrylate], at ER-α, the Emax was not below 40% and the DC50 was not above 100 nM. In addition, in the assay with MCF-7 cells, the “MCF7 Viability Assay Max Response” value was “+ (+ = a single % value < 40%)” and the negative-log IC50 (pIC50) was not below 7.00.

Turning to `CC/C(=C(/c1ccc(/C=C/C(=O)O)cc1)c1ccc2[nH]ncc2c1)c1ccc(Cl)cc1Cl` [Compound 113, (E)-3-(4-((E)-2-(2,4-Dichlorophenyl)-1-(1H-indazol-5-yl)but-1-en-1-yl)phenyl)acrylic acid], at ER-α, the Emax is not below 40% and the DC50 was not above 100 nM. Also, in the assay on MCF-7 cells, the “MCF7 Viability Assay Max Response” value is reported as “++ (++ = a single % value ≧ 40%)” and the pIC50 is not below 7.00.

As to `CC/C(=C(/c1ccc(/C=C/C(=O)O)cc1)c1ccc2[nH]ncc2c1)c1ccc(Cl)cc1C(F)(F)F` [Compound 114, (E)-3-(4-((E)-2-(4-Chloro-2-(trifluoromethyl)phenyl)-1-(1H-indazol-5-yl)but-1-en-1-yl)phenyl)acrylic acid], at ER-α, the Emax was not below 40% and the DC50 is not above 100 nM. Moreover, in the assay on MCF-7 cells, the “MCF7 Viability Assay Max Response” value is listed as “++ (++ = a single % value ≧ 40%)” and the pIC50 is not below 7.00.

As for `O=C(O)/C=C/c1ccc(/C(=C(\c2ccc(F)cc2Cl)C2CC2)c2ccc3[nH]ncc3c2)cc1` [Compound 115, (E)-3-(4-((E)-2-(2-Chloro-4-fluorophenyl)-2-cyclopropyl-1-(1H-indazol-5-yl)vinyl)phenyl)acrylic acid], on ER-α, the Emax was not below 40% and the DC50 was not above 100 nM. In addition, in the assay with MCF-7 cells, the “MCF7 Viability Assay Max Response” value is listed as “++ (++ = a single % value ≧ 40%)” and the negative logarithm of the IC50 (pIC50) was not below 7.00.

Consider `CC/C(=C(/c1ccc(/C=C/C(=O)O)cc1)c1ccc2[nH]ncc2c1)c1ccc(F)cc1C(F)(F)F` [Compound 116, (E)-3-(4-((E)-2-(4-Fluoro-2-(trifluoromethyl)phenyl)-1-(1H-indazol-5-yl)but-1-en-1-yl)phenyl)acrylic acid], for which, at ER-α, the Emax was not below 40% and the DC50 was not above 100 nM. Moreover, in the assay on MCF-7 cells, the “MCF7 Viability Assay Max Response” value is given as “++ (++ = a single % value ≧ 40%)” and the pIC50 was not below 7.00.

Take `CC/C(=C(/c1ccc(/C=C/C(=O)O)cc1)c1ccc2[nH]ncc2c1F)c1ccc(Cl)cc1Cl` [Compound 118, (E)-3-(4-((E)-2-(2,4-Dichlorophenyl)-1-(4-fluoro-1H-indazol-5-yl)but-1-en-1-yl)phenyl)acrylic acid]: on ER-α, the Emax was not below 40% and the DC50 was not above 100 nM. Moreover, in the assay on MCF-7 cells, the “MCF7 Viability Assay Max Response” value was “++ (++ = a single % value ≧ 40%)” and the pIC50 was not below 7.00.

On to `CC/C(=C(/c1ccc(/C=C/C(=O)O)cc1)c1ccc2[nH]ncc2c1F)c1ccc(Cl)cc1C(F)(F)F` [Compound 119, (E)-3-(4-((E)-2-(4-Chloro-2-(trifluoromethyl)phenyl)-1-(4-fluoro-1H-indazol-5-yl)but-1-en-1-yl)phenyl)acrylic acid], for which, on ER-α, the Emax is not below 40% and the DC50 is not above 100 nM. For the same compound, in the assay on MCF-7 cells, the “MCF7 Viability Assay Max Response” value is listed as “++ (++ = a single % value ≧ 40%)” and the negative logarithm of the IC50 (pIC50) was not below 7.00.
